From PMC12704579, “New Anticancer 4‐Aryldihydropyrimidinone‐5‐Carboxylates Targeting Hsp90” (Chemical Biology & Drug Design, 2025)
Where “and” joins values, the source holds several entries; their conditions need not be identical. Equal values may be shown once.

Key:
HEK-293 cells = test: CellTiter-Blue cell viability assay, HEK-293 (24 h); assay type: cell-based, human; conditions: Homo sapiens, HEK293; 24 h incubation time
Protocol: (§1) Human Embryonic Kidney cells (HEK‐293) and human breast cancer cells (MCF‐7, MDA‐MB‐231 and HCC1954) were cultured in complete growth media: […] 1X (Gibco); 10% v/v Fetal Bovine Serum (FBS, Sigma Dorset UK) and L‐glutamine (2 mM, Invitrogen). SW‐480‐WT cells were maintained in selective media made up of Dulbecco's Modified Eagle Medium (Gibco), enriched with […] of Geneticin Selective Antibiotic (G418 Sulfate; Gibco, Thermo Fisher). Cells were incubated at a 5% CO2 atmosphere at 37°C.
(§2) Cells were cultured in 96‐well plates in 90 μL at a seeding density of 1 × 10^6 cells per well. Compound samples were prepared at different concentrations (1 mM, 100 μM, 10 μM, 1 μM, 100 nM, 10 nM) and 10 μL of each concentration was seeded in each well. Two different negative controls were used: DMSO 0.01% and 0.001%. Paclitaxel (30% w/v) was used as a positive control. Cells were treated for 24 h after which 20 μL of CellTitre‐Blue reagent (Promega, Southampton, UK) was added and incubated for 2 h at 37°C in 5% CO2. Fluorescence was measured at 560/590 nm on a Fluorostar Optima plate reader (BMG Labtech, Bucks, UK). Assay end points were normalised to 0% (DMSO only) and fitted to a semilog plot using at least n = 3 technical replicates (n = 6 for DMSO control and paclitaxel control) and N = 3 independent replicates. The curve fit was performed using the GraphPad Prism software and the standard Hill equation.
(§3) In view of previous reports on Hsp90 inhibitors and their effects on cancer cell viability (Eachkoti et al. [2014]) and clonogenicity (Kinzel et al. [2016]), new compounds were tested for inhibition of cell viability within both non‐tumourigenic (HEK‐293) and breast cancer cell lines (MDA‐MB‐231) at a fixed concentration of 10 μM. The well‐established CellTiter‐Blue endpoint assay was used to assess cell viability. New compounds were also assessed in a colony forming assay (MCF‐7 breast cancer cell line), used as an efficacy screening to provide an indication of the inhibition of clonogenicity for these small molecules (Table 1).

[1] = as above; assay type: cell-based, human; conditions: human, HEK-293 cells, CellTiter-Blue, 24 h incubation, 10 μM test compound, standardised to DMSO control
Protocol: as §1, §2, §3

[2] = target: T1, Recombinant human Hsp90 alpha protein (Homo sapiens, UniProt P07900); test: Transcreener ADP FP Hsp90 ATPase assay; assay type: biochemical; conditions: Recombinant human HSP90, 100 μM ATP; read-out: ATPase assay on rh-Hsp90 IC50
T1 construct: human full‐length protein, expressed in Escherichia coli; His tag (C); purchased Abcam ab80369; host or cells: Escherichia coli
Protocol: Transcreener ADP (cat. no. 3004‐1K) and ADP2 (cat. no. 3010‐1K) FP assay kits were obtained from Bellbrook Laboratories. Recombinant human Hsp90 alpha protein (active), human full‐length protein, expressed in Escherichia coli with > 90% purity and C‐terminus His tag, was purchased from Abcam (ab80369). All FP assays were carried out in black, 384‐well, low‐volume, polystyrene nonbinding microplates from Corning Life Sciences. All basic buffer components were obtained from Sigma‐Aldrich Chemical Co. 17‐AAG (Figure 1) was obtained from Abcam. Using the Transcreener ADP FP kit, the conditions for the recombinant human Hsp90 ATPase reaction were 50 mM HEPES (pH 7.4), 20 mM KCl, 2 mM EGTA, 4 mM MgCl2, and 0.01% Brij‐35 in a 10‐μL total assay volume. The final assay concentration of ATP was 100 μM for Hsp90. Due to the relatively low level of ATPase activity compared with other enzymes, the plate was incubated at 37°C and run over 1, 2 and 3 h time points. The reaction was stopped, and the ADP was detected by adding 10 μL of 50 mM HEPES (pH 7.4), 400 mM NaCl, 20 mM EDTA, 0.01% Brij35, 75 μg/mL anti‐ADP monoclonal antibody, and 4 nM ADP far red tracer. The plate was sealed, centrifuged at 600 g for 1 min, and left at room temperature for 1 h. FP readings for the Hsp90 ATPase Transcreener assays were performed on a Clariostar plate reader ([…]). A blank mP signal composed of protein, antibody, labelled ADP, but no ATP substrate gave similar mP values to those seen in the no‐protein controls. The upper limit of the assay window was defined by a no‐protein control, and the mP in the presence of heat shock protein was subtracted from this control to generate a change in polarisation (ΔmP), which was plotted on the activity graphs. Therefore, the data take into account the spontaneous hydrolysis of ATP. Each value is the mean of triplicate determinations with standard deviations (SD) shown. IC50 values were calculated using GraphPad Prism software with the nonlinear regression curve fitted to the log (inhibitor concentration) against the raw mP values on the linear portion of the standard curve.

MCF-7 cells = test: Colony forming assay, MCF-7; assay type: cell-based, human; conditions: for IC50: Homo sapiens, MCF7, 168 h, 7 days; for % Clonogenicity (MCF-7, 10 μM): percentage of survival colonies, 7-day incubation, standardised to DMSO control
Protocol: as §1
Cells were seeded in a 12‐well plate at 400 cells per well. One hour after the seeding of the cells, compounds (1 mM, 100 μM, 10 μM, 1 μM, 100 nM, 10 nM) or vehicle were added into the wells in triplicate (DMSO vehicle 0.1% and 1%). After 7 days, colonies were stained with 350 μL of crystal violet solution, incubated for 30 min at room temperature, then wells were washed in water and dried. At least the best 3 independent experiments out of 5 independent repeats were used to perform the statistical analysis of the results. Colonies were counted by GelCount Colony Counter (Oxford Optronix Ltd.) using the GelCount 1.1.8.0 software. Assay end points were normalised to 0% (DMSO only) and fitted to a semi‐log plot using at least n = 3 technical replicates (n = 6 for DMSO control and N = 3 independent replicates). The curve fit was performed using GraphPad Prism.
as §3

MDA-MB-231 cells = test: CellTiter-Blue cell viability assay, MDA-MB-231 (24 h); assay type: cell-based, human; conditions: for GI50: 24 h incubation time; for viability at 10 µM / % Viability (MDA-MB-231, 10 μM): CellTiter-Blue, 24 h incubation, 10 μM test compound, standardised to DMSO control
Protocol: as §1, §2, §3

IC50 [2] [µM]	IC50 (MCF-7 cells) [µM]	GI50 (MDA-MB-231 cells; Homo sapiens, MDA-MB-231, 24 h) [µM]	GI50 (MDA-MB-231 cells) [µM]	SMILES	GI50 (HEK-293 cells) [µM]	viability at 24 h, 10 µM [1] [%]	% Clonogenicity (MCF-7, 10 μM) (MCF-7 cells)	viability at 10 µM (MDA-MB-231 cells; Homo sapiens, MDA-MB-231, 24 h) [%]	% Viability (MDA-MB-231, 10 μM) (MDA-MB-231 cells) [%]
5.36	5.03	86.2		COc1ccc(C2NC(=O)NC(C)=C2C(=O)OCc2ccccc2)c(F)c1 (stereo not shown) [Compound 5a, Benzyl 4‐(2‐Fluoro‐4‐Methoxyphenyl)‐6‐Methyl‐2‐Oxo‐1,2,3,4‐Tetrahydropyrimidine‐5‐Carboxylate]	71.5	90.6 ± 3.35	71.87 ± 4.77%	91.33 ± 0.64	
13.1	0.68	72.1		COc1ccc(C2NC(=O)NC(C)=C2C(=O)OCc2ccc(OC)c(OC)c2)c(F)c1 (stereo not shown) [Compound 5b, 3,4‐Dimethoxybenzyl 4‐(2‐Fluoro‐4‐Methoxyphenyl)‐6‐Methyl‐2‐Oxo‐1,2,3,4‐Tetrahydropyrimidine‐5‐Carboxylate]	44.9	99.9 ± 1.5	71.39 ± 2.94%	89.7 ± 1.37	
4.28	2.46	22.7		COc1ccc(COC(=O)C2=C(C)NC(=O)NC2c2ccc(Cl)cc2)cc1OC (stereo not shown) [Compound 5c, 3,4‐Dimethoxybenzyl‐4‐(4‐Chlorophenyl)‐6‐Methyl‐2‐Oxo‐1,2,3,4‐Tetrahydropyrimidine‐5‐Carboxylate]	12.6	99.4 ± 3.16	64.29 ± 3.69%	< 80	73.55 ± 3.50
13.7	2.29	98.9		CC1=C(C(=O)OCc2ccccc2)C(c2ccc(OC(F)(F)F)cc2F)NC(=O)N1 (stereo not shown) [Compound 5f, Benzyl 4‐(2‐Fluoro‐4‐(Trifluoromethoxy)phenyl)‐6‐Methyl‐2‐Oxo‐1,2,3,4‐Tetrahydropyrimidine‐5‐Carboxylate]	16.4	95.1 ± 3.82	72.41 ± 3.21%	85.7 ± 2.65	
32.6	0.83	19.3		COc1ccc(COC(=O)C2=C(C)NC(=O)NC2c2cccc(Cl)c2)cc1OC (stereo not shown) [Compound 5g, 3,4‐Dimethoxybenzyl 4‐(3‐Chlorophenyl)‐6‐Methyl‐2‐Oxo‐1,2,3,4‐Tetrahydropyrimidine‐5‐Carboxylate]	39.1	96.7 ± 3.77	50.04 ± 2.3%	< 80	72.16 ± 7.20
6.47	9.08	23.7		COc1cccc(COC(=O)C2=C(C)NC(=O)NC2c2ccc(Cl)cc2)c1 (stereo not shown) [Compound 5h, 3‐Methoxybenzyl 4‐(4‐Chlorophenyl)‐6‐Methyl‐2‐Oxo‐1,2,3,4‐Tetrahydropyrimidine‐5‐Carboxylate]	12.3	81 ± 2.36	42.34 ± 4.80%	88 ± 3.1	
9.59	0.56	40	40	COc1ccc(COC(=O)C2=C(C)NC(=O)NC2c2ccc(Cl)cc2)cc1 (stereo not shown) [Compound 5i, 4‐Methoxybenzyl 4‐(4‐Chlorophenyl)‐6‐Methyl‐2‐Oxo‐1,2,3,4‐Tetrahydropyrimidine‐5‐Carboxylate]	98.5	94.3 ± 2.95	8.39% and 8.39 ± 2.84%	83.26 ± 0.69	
32.5	3.49	65.7		COc1ccc(COC(=O)C2=C(C)NC(=O)NC2c2ccccc2Cl)cc1OC (stereo not shown) [Compound 5j, 3,4‐Dimethoxybenzyl 4‐(2‐Chlorophenyl)‐6‐Methyl‐2‐Oxo‐1,2,3,4‐Tetrahydropyrimidine‐5‐Carboxylate]	58	93 ± 2.59	58.18 ± 4.42%	< 80	76.50 ± 4.28
20.2	2.46	77.2		COc1ccc(C2NC(=O)NC(C)=C2C(=O)OCc2ccc3c(c2)OCO3)cc1 (stereo not shown) [Compound 5k, Benzo[d] [1,3] Dioxol‐5‐ylmethyl 4‐(4‐Methoxyphenyl)‐6‐Methyl‐2‐Oxo‐1,2,3,4‐Tetrahydropyrimidine‐5‐Carboxylate]	63	98.6 ± 1.31	99.85 ± 3.27%	98.7 ± 2.6	
22.9	0.89	86.6		CC1=C(C(=O)OCc2ccccc2)C(c2ccc(F)cc2)NC(=O)N1 (stereo not shown) [Compound 5l, Benzyl 4‐(4‐Fluorophenyl)‐6‐Methyl‐2‐Oxo‐1,2,3,4‐Tetrahydropyrimidine‐5‐Carboxylate]	52.9	98 ± 1.89	82.62 ± 2.93%	100 ± 2.96	
16.6	15.7	84.9		CC1=C(C(=O)OCc2ccccc2)C(c2ccccc2F)NC(=O)N1 (stereo not shown) [Compound 5m, Benzyl 4‐(2‐Fluorophenyl)‐6‐Methyl‐2‐Oxo‐1,2,3,4‐Tetrahydropyrimidine‐5‐Carboxylate]	20.4	97.7 ± 3.27	99.95 ± 2.40%	95.2 ± 3.72	
74.6	7.17	86.7		CC1=C(C(=O)OCc2ccccc2)C(c2ccc(C)cc2F)NC(=O)N1 (stereo not shown) [Compound 5n, Benzyl 4‐(2‐Fluoro‐4‐Methylphenyl)‐6‐Methyl‐2‐Oxo‐1,2,3,4‐Tetrahydropyrimidine‐5‐Carboxylate]	39.6	98.7 ± 2.49	90.54 ± 0.81%	97.3 ± 1.3	
